Test results from article PMC11858653, “Design, Synthesis and Bioactive Evaluation of Topo I/c-MYC Dual Inhibitors to Inhibit Oral Cancer via Regulating the PI3K/AKT/NF-κB Signaling Pathway” (Molecules, 2025).
“Also recorded” adds a separate entry of the source.

Key:
MGC-803 = experiment: MTT antiproliferative assay, MGC-803; type: cell-based, human; settings: mean ± SD
Procedure: (§1) Having evaluated their Topo I inhibitory activity, the antiproliferative activity of the target compounds against some common human cancer cell lines (NCI-H460, A549, ACHN, Cal27 and MGC-803) and one normal cell line (SV-HUC-1) was tested via an MTT assay. TPT, the first Topo I inhibitor approved in clinics, and cisplatin (CDDP), a commonly selected anticancer drug for treating head and neck malignancies, were used as the positive controls.
(§2) Human oral cancer Cal27 cells were seeded in 96-well plates and incubated overnight in 180 μL of medium containing 10% Fetal Bovine Serum (Gibco, San Francisco, CA, USA). […] Then, 10 μL of 5 mg/mL MTT solution was added to each well and incubated at 37 °C for 4 h. After 4 h of incubation at 37 °C, the MTT-containing medium was removed and DMSO was added to each well and the absorbance at 570 nm and 630 nm was measured using a microplate reader (CYTATION 3, Burton, Westwood, NJ, USA). Survival/% = (mean OD of experimental group/mean OD of control group) × 100%. Each test was repeated at least three times.

Cal27 = experiment: MTT antiproliferative assay, Cal27; type: cell-based, human; settings: mean ± SD
Procedure: as §1, §2

ACHN = experiment: MTT antiproliferative assay, ACHN; type: cell-based, human; settings: 48 h, mean ± SD
Procedure: as §1, §2

NCI-H460 = experiment: MTT antiproliferative assay, NCI-H460; type: cell-based, human; settings: mean ± SD
Procedure: as §1, §2

A549 = experiment: MTT antiproliferative assay, A549; type: cell-based, human; settings: mean ± SD
Procedure: as §1, §2

SV-HUC-1 = experiment: MTT assay, normal cell line SV-HUC-1; type: cell-based; settings: mean ± SD
Procedure: as §1, §2

Topo I = target: T1, Topo I (Homo sapiens, UniProt P11387); experiment: Topo I inhibitory activity, agarose gel electrophoresis (pBR322); type: biochemical; settings: for Topo I inhibitory activity (in words) / nicked DNA in the lane (DNA breakage): 20 μM
T1 sequence (P11387 1-765): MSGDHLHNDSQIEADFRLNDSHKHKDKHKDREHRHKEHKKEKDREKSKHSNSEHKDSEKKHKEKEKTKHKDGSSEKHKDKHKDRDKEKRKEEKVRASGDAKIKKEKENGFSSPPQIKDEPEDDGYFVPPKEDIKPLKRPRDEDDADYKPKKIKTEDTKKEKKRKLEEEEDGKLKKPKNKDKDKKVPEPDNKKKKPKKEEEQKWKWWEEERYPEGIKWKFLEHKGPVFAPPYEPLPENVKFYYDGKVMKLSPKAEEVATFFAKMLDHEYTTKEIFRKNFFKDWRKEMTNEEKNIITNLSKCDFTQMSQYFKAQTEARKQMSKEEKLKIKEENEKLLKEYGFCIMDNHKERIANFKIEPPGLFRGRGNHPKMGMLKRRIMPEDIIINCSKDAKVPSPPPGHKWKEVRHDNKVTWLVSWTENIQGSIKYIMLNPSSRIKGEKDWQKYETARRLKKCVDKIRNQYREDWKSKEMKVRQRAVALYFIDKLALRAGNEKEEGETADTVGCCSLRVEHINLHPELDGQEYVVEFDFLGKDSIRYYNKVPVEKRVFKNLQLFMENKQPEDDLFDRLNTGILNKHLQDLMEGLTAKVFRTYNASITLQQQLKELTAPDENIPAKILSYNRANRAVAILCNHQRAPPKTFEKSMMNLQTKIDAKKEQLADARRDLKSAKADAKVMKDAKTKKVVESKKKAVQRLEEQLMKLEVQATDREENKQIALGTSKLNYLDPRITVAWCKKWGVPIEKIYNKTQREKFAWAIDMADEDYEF
Procedure: In this assay, 250 ng of pBR322 plasmid DNA, different concentrations of the compounds to be tested, 0.1% BSA 1 μL, 10× Topo I buffer, Topo I and add 1× TAE buffer were mixed to a final volume of 20 μL. The reaction was carried out for 30 min at 37 °C in a water bath. After the reaction was terminated, 4 μL of each of the 6× DNA Sampling Buffers were added to the gel. The pBR322 plasmid DNA alone was used as a negative control, and camptothecin was used as a positive control. Finally, the samples were loaded onto the gels and electrophoresed for about 1.5 h. After electrophoresis, the gel blocks were incubated in 1 mg/L ethidium bromide (EB) for 30 min and then visualized on the gel system.

Structure (SMILES) | IC50 (MGC-803; Homo sapiens, MGC-803, 48 h) [µM] | IC50 (ACHN; Homo sapiens, ACHN) [µM] | IC50 (NCI-H460; Homo sapiens, NCI-H460, 48 h) [µM] | IC50 (A549; Homo sapiens, A549, 48 h) [µM] | Topo I inhibitory activity (in words) (Topo I) | IC50 (MGC-803; 48 h) [µM] | IC50 (ACHN) [µM] | IC50 (NCI-H460; 48 h) [µM] | IC50 (A549; 48 h) [µM] | nicked DNA in the lane (DNA breakage) (Topo I) | concentration at which the activity of Topo I was fully inhibited (Topo I; different concentrations) [µM] | IC50 (Cal27; Homo sapiens, CAL-27, 48 h) [µM] | IC50 (SV-HUC-1; SV-HUC1, 48 h) [µM] | IC50 (Cal27; 48 h) [µM] | IC50 (SV-HUC-1; 48 h) [µM]
O=S1(=O)c2ncccc2-c2nc(NCCN3CCCC3)c3ccccc3c21 [7ac, 5-((2-(Pyrrolidin-1-yl)ethyl)amino)pyrido[3′,2′:4,5] thieno[3,2-c]isoquinoline 11,11-dioxide] | 15.2 ± 3.41 | 16.9 ± 3.27 | 12 ± 4.2 | 9.69 ± 2.08 | – | – | – | – | – | nicked DNA could be clearly observed | – | 14.6 ± 2.12 | 14.2 ± 2.77 | – | –
CCN(CC)CCCNc1nc2c(c3ccccc13)S(=O)(=O)c1nc(C)cc(C)c1-2 [7bg, 5-((3-(Diethylamino)propyl)amino)-7,9-dimethyl-pyrido[3′,2′:4,5]thieno[3,2-c]isoquinoline 11,11-dioxide] | 6.23 ± 1.96 | 6.89 ± 2.86 | 6.92 ± 2.01 | 6.54 ± 0.52 | weak Topo I activity | – | – | – | – | – | – | 6.35 ± 3.28 | 4.38 ± 0.46 | – | –
CN(C)CCCNc1nc2c(c3ccccc13)S(=O)(=O)c1ncccc1-2 [7af, 5-((3-(Dimethylamino)propyl)amino)pyrido[3′,2′:4,5] thieno[3,2-c]isoquinoline 11,11-dioxide] | 9.84 ± 1.32 | 14.7 ± 0.15 | 64.5 ± 2.88 | 13.8 ± 2.53 | – | – | – | – | – | nicked DNA could be clearly observed | – | 10.6 ± 0.96 | > 100 | – | –
Cc1cc(C)c2c(n1)S(=O)(=O)c1c-2nc(NCCN(C)C)c2ccccc12 [7ba, 5-((2-(Dimethylamino)ethyl)amino)-7,9-dimethylpyrido[3′,2′:4,5]thieno[3,2-c]isoquinoline 11,11-dioxide] | 6.33 ± 0.75 | 4.59 ± 1.68 | 6.68 ± 1.5 | 7.03 ± 1.95 | potent Topo I activity | – | – | – | – | – | – | 4.99 ± 2 | 4.66 ± 1.69 | – | –
O=S1(=O)c2ncccc2-c2nc(NCCCN3CCCC3)c3ccccc3c21 [7ah, 5-((3-(Pyrrolidin-1-yl)propyl)amino)pyrido[3′,2′:4,5] thieno[3,2-c]isoquinoline 11,11-dioxide] | 19.5 ± 0.87 | 13 ± 1.24 | 42.7 ± 2.28 | 27.7 ± 1.49 | – | – | – | – | – | nicked DNA could be clearly observed | – | 23.1 ± 2.48 | > 100 | – | –
NCCCNc1nc2c(c3ccccc13)S(=O)(=O)c1ncccc1-2 [7ak, 5-((3-Aminopropyl)amino)pyrido[3′,2′:4,5]thieno[3,2-c]isoquinoline 11,11-dioxide] | 10.2 ± 1.61 | 7.94 ± 3.26 | 56.6 ± 3.25 | 52 ± 1.49 | – | – | – | – | – | nicked DNA could be clearly observed | – | 10.6 ± 1.32 | > 100 | – | –
Cc1cc(C)c2c(n1)S(=O)(=O)c1c-2nc(NCCCN(C)C)c2ccccc12 [7bf, 5-((3-(Dimethylamino)propyl)amino)-7,9-dimethylpyrido[3′,2′:4,5]thieno[3,2-c]isoquinoline 11,11-dioxide] | 8.44 ± 2.86 | 6.67 ± 1.49 | 5.07 ± 1.92 | 6.25 ± 2.23 | potent Topo I activity; also recorded: weak Topo I activity | – | – | – | – | – | – | 5.2 ± 1.2 | 5.14 ± 1.55 | – | –
Cc1cc(C)c2c(n1)S(=O)(=O)c1c-2nc(NCCN2CCCC2)c2ccccc12 [7bc, 7,9-Dimethyl-5-((2-(pyrrolidin-1-yl)ethyl)amino) pyrido[3′,2′:4,5]thieno[3,2-c]isoquinoline 11,11-dioxide] | 6.44 ± 0.76 | 6.41 ± 1.41 | 9.57 ± 2.07 | 5.47 ± 0.82 | potent Topo I activity | – | – | – | – | – | – | 3.36 ± 0.83 | 8.17 ± 3.36 | – | –
CCN(CC)CCNc1nc2c(c3ccccc13)S(=O)(=O)c1nc(C)cc(C)c1-2 [7bb, 5-((2-(Diethylamino)ethyl)amino)-7,9-dimethylpyrido[3′,2′:4,5]thieno[3,2-c]isoquinoline 11,11-dioxide] | 6.02 ± 1.59 | 5.66 ± 0.54 | 7.68 ± 0.88 | 7.54 ± 2.07 | weak Topo I activity | – | – | – | – | – | – | 4.89 ± 2.41 | 3.57 ± 0.35 | – | –

Continued, in another order:

IC50 (MGC-803; Homo sapiens, MGC-803, 48 h) [µM] | IC50 (ACHN; Homo sapiens, ACHN) [µM] | IC50 (NCI-H460; Homo sapiens, NCI-H460, 48 h) [µM] | IC50 (A549; Homo sapiens, A549, 48 h) [µM] | Topo I inhibitory activity (in words) (Topo I) | IC50 (MGC-803; 48 h) [µM] | IC50 (ACHN) [µM] | IC50 (NCI-H460; 48 h) [µM] | IC50 (A549; 48 h) [µM] | nicked DNA in the lane (DNA breakage) (Topo I) | concentration at which the activity of Topo I was fully inhibited (Topo I; different concentrations) [µM] | Structure (SMILES) | IC50 (Cal27; Homo sapiens, CAL-27, 48 h) [µM] | IC50 (SV-HUC-1; SV-HUC1, 48 h) [µM] | IC50 (Cal27; 48 h) [µM] | IC50 (SV-HUC-1; 48 h) [µM]
> 100 | > 100 | 73.68 ± 0.67 | 80.5 ± 2.44 | weak Topo I activity | – | – | – | – | – | – | Cc1cc(C)c2c(n1)S(=O)(=O)c1c-2nc(NCCCN2CCOCC2)c2ccccc12 [7bi, 7,9-Dimethyl-5-((3-morpholinopropyl)amino)-pyrido[3′,2′:4,5]thieno[3,2-c]isoquinoline 11,11-dioxide] | 20.3 ± 2.89 | 87.4 ± 2.65 | – | –
– | – | – | – | – | 13.3 ± 4.44 | 16.6 ± 3.08 | 12.6 ± 2.23 | > 100 | nicked DNA could be clearly observed | – | Cc1cc(-c2ccccc2)nc2c1-c1nc(NCCCN(C)C)c3ccccc3c1S2(=O)=O [7cf, 5-((3-(Dimethylamino)propyl)amino)-7-methyl-9-phenylpyrido[3′,2′:4,5]thieno[3,2-c]isoquinoline 11,11-dioxide] | – | – | 21.5 ± 3.81 | 12.1 ± 3.26
– | – | – | – | – | 8.22 ± 2.75 | 15.4 ± 3.65 | 16.6 ± 1.44 | 27.1 ± 2.25 | nicked DNA could be clearly observed | – | CCN(CC)CCCNc1nc2c(c3ccccc13)S(=O)(=O)c1nc(-c3ccccc3)cc(C)c1-2 [7cg, 5-((3-(Diethylamino)propyl)amino)-7-methyl-9-phenylpyrido[3′,2′:4,5]thieno[3,2-c]isoquinoline 11,11-dioxide] | – | – | 17.7 ± 3.96 | 15.6 ± 3.18
4.83 ± 0.67 | 5.9 ± 1.45 | 4.79 ± 0.4 | 4.84 ± 0.74 | potent Topo I activity | – | – | – | – | – | 40 | Cc1cc(C)c2c(n1)S(=O)(=O)c1c-2nc(NCCCN2CCCC2)c2ccccc12 [7bh, 7,9-Dimethyl-5-((3-(pyrrolidin-1-yl)propyl)amino)-pyrido[3′,2′:4,5]thieno[3,2-c]isoquinoline 11,11-dioxide] | 3.47 ± 0.84 | 3.83 ± 0.14 | – | –
– | – | – | – | – | > 100 | > 100 | > 100 | > 100 | nicked DNA could be clearly observed | – | Cc1cc(-c2ccccc2)nc2c1-c1nc(NCCCN3CCCC3)c3ccccc3c1S2(=O)=O [7ch, 7-Methyl-9-phenyl-5-((3-(pyrrolidin-1-yl)propyl)-amino)pyrido[3′,2′:4,5]thieno[3,2-c]isoquinoline 11,11-dioxide] | – | – | > 100 | 49.6 ± 3.27
